Data on 27 compounds can be found in patent US10246442B2, “4-Aminoquinazolin compounds as prolyl hydroxylase inhibitors” (JANSSEN PHARMACEUTICA NV, priority 2011, dated 2019).

Structures are written as SMILES.

Assay [1] deals with PHD2181-417 (Homo sapiens (Human), UniProt Q9GZT9). Nature of the assay: PHD enzymatic assay ([14C]-succinic acid production). It counts as biochemical. Conditions: purified PHD2181-417, HIF-1α peptide substrate, 30 min pre-incubation; average of results. The gist of the method:
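Recombinant human PHD2 (aa 181-417, E. coli-expressed, tags cleaved) with peptide substrate (10 μM) and [5-14C]-2-oxoglutarate in Tris pH 7.5 with catalase, DTT and ascorbate, 10 min reaction after 30 min compound pre-incubation; compounds at 100 μM final, 1% DMSO. [14C]-succinate separated by DNP precipitation and beta-counted; IC50 from three-parameter logistic fit.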

In assay [2] the test system is HIF1-α, Hela cells. Description: Cellular assay for HIF1-α in Hela cells. The note with it: Homo sapiens, 100 μM compound, 6 hours, percent of HIF stimulation relative to assay control compound 7-[(4-Chloro-phenyl)-(5-methyl-isoxazol-3-ylamino)-methyl]-quinolin-8-ol. It counts as cell-based. As for the experimental part:
Cellular Assay for HIF1-α
Hela cells (ATCC, Manassas, Va.) were plated in 96-well plates at 20,000 cells per well in 100 μl of DMEM containing 10% fetal bovine serum, 1% non-essential amino acids, 50 IU/mL of penicillin and 50 μg/mL of streptomycin (all cell culture reagents from Invitrogen, Carlsbad, Calif.). 24 hours after plating, changed media to 100 ul of DMEM without 10% fetal bovine serum, 1.1 μl of the stock solution for each compound was added and incubated for 6 hours. All compounds were tested with a final compound concentration of 100 μM. The supernatant was removed and the cells were lysed in 55 μl of MSD lysis buffer containing protease inhibitors. 50 μl of the cell lysate was then transferred to a blocked MSD human HIF-1α detection plate (Meso-Scale Discovery, Gaithersburg, Md., as per manufacturers protocol), and incubated at room temperature on an orbital shaker for 2 hour. After 3 washes in PBS, 25 μl of 20 nM anti-HIF1α a detection antibody was added and incubated for 1 hour at room temperature on an orbital shaker. After 3 washes in PBS, 150 μl of 1× read buffer was added and the plate was then read on a MSD SECTOR instrument. Data was analyzed by determining the percent of HIF stimulation in the presence of 100 μM compound relative to an assay control compound, 7-[(4-Chloro-phenyl)-(5-methyl-isoxazol-3-ylamino)-methyl]-quinolin-8-ol.

In assay [3] the test system is Erythropoietin secretion, Hep-3B cells. Nature of the assay: Cellular assay: EPO secretion in Hep-3B cells. It counts as cell-based. Conditions: Homo sapiens, Hep3B, 100 μM compound, 24 hours, percent of EPO secretion relative to assay control compound 7-[(4-Chloro-phenyl)-(5-methyl-isoxazol-3-ylamino)-methyl]-quinolin-8-ol, read-out: Cellular % EPO Stimulation. The gist of the method:
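Compounds at 100 μM final were added to Hep-3B cells 24 h after plating and left for 24 h. Secreted EPO in supernatant measured by MSD electrochemiluminescence immunoassay. Reported as percent EPO secretion relative to an 8-hydroxyquinoline reference control compound.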

Sequence of PHD2181-417 (Q9GZT9 181-417): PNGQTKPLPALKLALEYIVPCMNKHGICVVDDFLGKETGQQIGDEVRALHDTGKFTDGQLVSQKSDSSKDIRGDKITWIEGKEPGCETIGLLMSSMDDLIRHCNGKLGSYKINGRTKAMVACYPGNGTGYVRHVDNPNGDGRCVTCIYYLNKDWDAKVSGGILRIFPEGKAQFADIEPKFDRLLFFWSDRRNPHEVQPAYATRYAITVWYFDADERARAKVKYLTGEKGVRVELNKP

For `O=C(O)c1cnn(-c2nc(N3CCCCCC3)c3cc(Oc4ccc(Cl)cc4)ccc3n2)c1` [Example 66, 1-(4-(Azepan-1-yl)-6-(4-chlorophenoxy)quinazolin-2-yl)-1H-pyrazole-4-carboxylic acid], the “Enzyme pIC50” value in assay [1] is reported as 7.5. Moreover, the activation at 100 µM in assay [2] was determined as 14%.

For the compound `CC(=O)NC1CCN(c2nc(-n3cc(C(=O)O)cn3)nc3ccc(-c4ccccc4)cc23)CC1` [Example 55, 1-(4-(4-Acetamidopiperidin-1-yl)-6-phenylquinazolin-2-yl)-1H-pyrazole-4-carboxylic acid], in assay [1], the “Enzyme pIC50” value came out at 6.7. Further, the activation at 100 µM in assay [2] came out at 28%.

Turning to `O=C(O)c1cnn(-c2nc(NC3CC3)c3ccc(Oc4ccccc4)cc3n2)c1` [Example 86, 1-(4-(Cyclopropylamino)-7-phenoxyquinazolin-2-yl)-1H-pyrazole-4-carboxylic acid], the “Enzyme pIC50” value in assay [1] is 6.3. In assay [2], this compound yielded an activation at 100 µM of 13%.

Consider `CC(C)(C)Nc1nc(-n2cc(C(=O)O)cn2)nc2ccc(-c3ccccc3)cc12` [Example 52, 1-(4-(tert-Butylamino)-6-phenylquinazolin-2-yl)-1H-pyrazole-4-carboxylic acid], for which the “Enzyme pIC50” value in assay [1] worked out at 6.5. Besides, the activation at 100 µM in assay [2] worked out at 37%.

Turning to `N#CC1CCN(c2nc(-n3cc(C(=O)O)cn3)nc3ccc(-c4ccccc4)cc23)CC1` [Example 59, 1-(4-(4-Cyanopiperidin-1-yl)-6-phenylquinazolin-2-yl)-1H-pyrazole-4-carboxylic acid], the “Enzyme pIC50” value in assay [1] is given as 6.4. Moreover, in assay [2], the activation at 100 µM was determined as 45%.

Take `Cc1cccc(C)c1Oc1cc2c(N3CCCN(C)CC3)nc(-n3cc(C(=O)O)cn3)nc2cc1F` [Example 17, 1-(6-(2,6-Dimethylphenoxy)-7-fluoro-4-(4-methyl-1,4-diazepan-1-yl)quinazolin-2-yl)-1H-pyrazole-4-carboxylic acid]: the “Enzyme pIC50” value in assay [1] is 6.7. In assay [2], this compound displayed an activation at 100 µM of 47%.

For `Cc1cccc(C)c1Oc1cc2c(N3CCSCC3)nc(-n3cc(C(=O)O)cn3)nc2cc1F` [Example 18, 1-(6-(2,6-Dimethylphenoxy)-7-fluoro-4-thiomorpholinoquinazolin-2-yl)-1H-pyrazole-4-carboxylic acid], in assay [1], the “Enzyme pIC50” value worked out at 7.0. For the same compound, the activation at 100 µM in assay [2] is 15%.

Turning to `O=C(O)c1cnn(-c2nc(N3CCCC3)c3cc(-c4ccccc4)ccc3n2)c1` [Example 43, 1-(6-Phenyl-4-(pyrrolidin-1-yl)quinazolin-2-yl)-1H-pyrazole-4-carboxylic acid], the “Enzyme pIC50” value in assay [1] is given as 7.3. Further, the activation at 100 µM in assay [2] came out at 57%.

`O=C(O)c1cnn(-c2nc(N3CCCCC3)c3ccc(-c4ccccc4)cc3n2)c1` [Example 82, 1-(7-Phenyl-4-(piperidin-1-yl)quinazolin-2-yl)-1H-pyrazole-4-carboxylic acid]: the “Enzyme pIC50” value in assay [1] came out at 6.1. This compound also yielded an activation at 100 µM in assay [2] of 4.6%.

Regarding `CC(C)(C)Nc1nc(-n2cc(C(=O)O)cn2)nc2cc(Oc3ccccc3)ccc12` [Example 99, 1-(4-(tert-Butylamino)-7-phenoxyquinazolin-2-yl)-1H-pyrazole-4-carboxylic acid], the “Enzyme pIC50” value in assay [1] was found to be 6.3. In assay [2], the activation at 100 µM is 31%.

Regarding `O=C(O)c1cnn(-c2nc(N3CCCCCC3)c3ccc(Oc4ccccc4)cc3n2)c1` [Example 87, 1-(4-(Azepan-1-yl)-7-phenoxyquinazolin-2-yl)-1H-pyrazole-4-carboxylic acid], in assay [2], the activation at 100 µM amounted to 20%.

With `O=C(O)c1cnn(-c2nc(N3CCCC3)c3ccc(-c4ccccc4)cc3n2)c1` [Example 81, 1-(7-Phenyl-4-(pyrrolidin-1-yl)quinazolin-2-yl)-1H-pyrazole-4-carboxylic acid], in assay [1], the “Enzyme pIC50” value is recorded as 5.5. The activation at 100 µM in assay [2] worked out at 10%.

Consider `O=C(O)c1cnn(-c2nc(N3CCC(F)CC3)c3cc(C4CCCCC4)ccc3n2)c1` [Example 31, 1-(6-Cyclohexyl-4-(4-fluoropiperidin-1-yl)quinazolin-2-yl)-1H-pyrazole-4-carboxylic acid], for which the “Enzyme pIC50” value in assay [1] is recorded as 7.1. For the same compound, the activation at 100 µM in assay [2] was determined as 34%.

For the compound `CCN(CC)c1nc(-n2cc(C(=O)O)cn2)nc2cc(Br)ccc12` [Example 96, 1-(7-Bromo-4-(diethylamino)quinazolin-2-yl)-1H-pyrazole-4-carboxylic acid], the “Enzyme pIC50” value in assay [1] turned out to be 6.9. This compound came in with an activation at 100 µM in assay [2] of 72%.

For the compound `O=C(O)c1cnn(-c2nc(Nc3ccccc3Cl)c3cc(-c4ccccc4)ccc3n2)c1` [Example 47, 1-(4-((2-Chlorophenyl)amino)-6-phenylquinazolin-2-yl)-1H-pyrazole-4-carboxylic acid], the “Enzyme pIC50” value in assay [1] worked out at 6.6. Further, the activation at 100 µM in assay [2] came out at 10%.

In the case of `O=C(O)c1cnn(-c2nc(N3CCCCCC3)c3cc(-c4ccccc4)ccc3n2)c1` [Example 48, 1-(4-(Azepan-1-yl)-6-phenylquinazolin-2-yl)-1H-pyrazole-4-carboxylic acid], the “Enzyme pIC50” value in assay [1] stood at 7.2. The activation at 100 µM in assay [2] turned out to be 23%.

For the compound `O=C(O)c1cnn(-c2nc(N3CCC(F)CC3)c3ccc(Oc4ccccc4)cc3n2)c1` [Example 91, 1-(4-(4-Fluoropiperidin-1-yl)-7-phenoxyquinazolin-2-yl)-1H-pyrazole-4-carboxylic acid], in assay [1], the “Enzyme pIC50” value is on record as 6.3. The compound also yielded an activation at 100 µM in assay [2] of 18%.

Take `O=C(O)c1cnn(-c2nc(Nc3ccccc3)c3cc(-c4ccccc4)ccc3n2)c1` [Example 44, 1-(6-Phenyl-4-(phenylamino)quinazolin-2-yl)-1H-pyrazole-4-carboxylic acid]: the “Enzyme pIC50” value in assay [1] is on record as 7.1. In assay [2], the activation at 100 µM is 22%.

Consider `O=C(O)c1cnn(-c2nc(NCC3CCCCC3)c3cc(Oc4ccc(Cl)cc4)ccc3n2)c1` [Example 64, 1-(6-(4-Chlorophenoxy)-4-((cyclohexylmethyl)amino)quinazolin-2-yl)-1H-pyrazole-4-carboxylic acid], for which the “Enzyme pIC50” value in assay [1] was determined as 7.5. This compound gave an activation at 100 µM in assay [2] of 1.5%.

On to `CC(C)(C)Nc1nc(-n2cc(C(=O)O)cn2)nc2ccc(C3CCCCC3)cc12` [Example 36, 1-(4-(tert-Butylamino)-6-cyclohexylquinazolin-2-yl)-1H-pyrazole-4-carboxylic acid], for which the “Enzyme pIC50” value in assay [1] was 6.8. Also, in assay [2], the activation at 100 µM is 23%.

Turning to `COCCN(C)c1nc(-n2cc(C(=O)O)cn2)nc2cc(Oc3ccccc3)ccc12` [Example 95, 1-(4-((2-Methoxyethyl)(methyl)amino)-7-phenoxyquinazolin-2-yl)-1H-pyrazole-4-carboxylic acid], the “Enzyme pIC50” value in assay [1] is reported as 6.8. The compound also gave an activation at 100 µM in assay [2] of 46%.

On to `Cc1cccc(C)c1Oc1cc2c(N3CCC(O)CC3)nc(-n3cc(C(=O)O)cn3)nc2cc1F` [Example 19, 1-(6-(2,6-Dimethylphenoxy)-7-fluoro-4-(4-hydroxypiperidin-1-yl)quinazolin-2-yl)-1H-pyrazole-4-carboxylic acid], for which the “Enzyme pIC50” value in assay [1] came out at 6.9. In assay [2], this compound returned an activation at 100 µM of 140%.

On to `O=C(O)c1cnn(-c2nc(NCC3CC3)c3ccc(Oc4ccccc4)cc3n2)c1` [Example 98, 1-(4-((Cyclopropylmethyl)amino)-7-phenoxyquinazolin-2-yl)-1H-pyrazole-4-carboxylic acid], for which, in assay [1], the “Enzyme pIC50” value worked out at 6.7. The activation at 100 µM in assay [2] is 46%.

As for `Nc1nc(-n2cc(C(=O)O)cn2)nc2ccc(-c3ccccc3)cc12` [Example 53, 1-(4-Amino-6-phenylquinazolin-2-yl)-1H-pyrazole-4-carboxylic acid], in assay [1], the “Enzyme pIC50” value is 7.0. This compound also gave an activation at 100 µM in assay [2] of 16%.

With `O=C(O)c1cnn(-c2nc(N3CCSCC3)c3cc(Oc4ccc(Cl)cc4)ccc3n2)c1` [Example 67, 1-(6-(4-Chlorophenoxy)-4-thiomorpholinoquinazolin-2-yl)-1H-pyrazole-4-carboxylic acid], the “Enzyme pIC50” value in assay [1] stood at 7.3. Also, the activation at 100 µM in assay [2] worked out at 31%.

`CCCN(CCC)c1nc(-n2cc(C(=O)O)cn2)nc2cc(Oc3ccccc3)ccc12` [Example 93, 1-(4-(Dipropylamino)-7-phenoxyquinazolin-2-yl)-1H-pyrazole-4-carboxylic acid] showed an activation at 100 µM in assay [2] of 43%.

Regarding `CN(C)c1nc(-n2cc(C(=O)O)cn2)nc2ccc(C3CCCCC3)cc12` [Example 38, 1-(6-Cyclohexyl-4-(dimethylamino)quinazolin-2-yl)-1H-pyrazole-4-carboxylic acid], in assay [3], the activation at 100 µM amounted to 61%. The “Enzyme pIC50” value in assay [1] is reported as 7.2.
